Where no end group is shown, it is not given here. code Z = not defined here

Experiment [1] has as its target T1, fibrin (in vitro human plasma clot) (Homo sapiens, UniProt P02671+P02675+P02679).
T1 construct: about 400 μl of human plasma containing the radiolabelled substrate; from tissue; host or cells: human plasma, clotted in vitro with added thrombin and calcium chloride
T1 sequence (P02671 20-644 isoform P02671-2 limits assumed): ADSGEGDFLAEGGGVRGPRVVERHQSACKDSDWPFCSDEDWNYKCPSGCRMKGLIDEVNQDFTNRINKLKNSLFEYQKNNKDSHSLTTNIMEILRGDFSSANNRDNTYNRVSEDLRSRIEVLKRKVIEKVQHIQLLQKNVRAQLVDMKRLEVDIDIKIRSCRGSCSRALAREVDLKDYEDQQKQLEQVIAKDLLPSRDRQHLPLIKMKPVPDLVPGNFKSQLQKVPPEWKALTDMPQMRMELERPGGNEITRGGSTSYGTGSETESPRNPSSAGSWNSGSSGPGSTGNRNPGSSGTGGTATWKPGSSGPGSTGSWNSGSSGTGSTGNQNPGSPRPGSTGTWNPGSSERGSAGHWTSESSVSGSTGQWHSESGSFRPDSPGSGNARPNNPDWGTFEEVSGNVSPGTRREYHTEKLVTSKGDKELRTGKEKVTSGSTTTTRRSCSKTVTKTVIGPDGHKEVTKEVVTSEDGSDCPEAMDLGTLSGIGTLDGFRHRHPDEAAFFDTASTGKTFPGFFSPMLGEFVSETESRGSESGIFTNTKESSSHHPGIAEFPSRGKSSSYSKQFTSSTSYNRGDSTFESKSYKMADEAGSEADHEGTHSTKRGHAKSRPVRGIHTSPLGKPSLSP
T1 sequence (P02675 45-491 limits assumed): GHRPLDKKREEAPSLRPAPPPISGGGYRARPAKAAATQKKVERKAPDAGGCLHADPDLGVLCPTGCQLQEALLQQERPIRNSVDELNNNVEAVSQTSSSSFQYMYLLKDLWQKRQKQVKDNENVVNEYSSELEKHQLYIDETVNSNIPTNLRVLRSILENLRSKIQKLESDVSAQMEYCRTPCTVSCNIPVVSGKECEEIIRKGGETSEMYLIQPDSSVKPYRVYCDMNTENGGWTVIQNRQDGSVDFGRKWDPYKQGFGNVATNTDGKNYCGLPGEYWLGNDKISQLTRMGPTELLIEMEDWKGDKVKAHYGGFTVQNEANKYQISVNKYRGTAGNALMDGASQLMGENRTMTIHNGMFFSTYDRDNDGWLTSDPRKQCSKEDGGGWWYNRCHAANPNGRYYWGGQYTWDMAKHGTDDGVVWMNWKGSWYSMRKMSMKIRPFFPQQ
T1 sequence (P02679 27-437 isoform P02679-2 limits assumed): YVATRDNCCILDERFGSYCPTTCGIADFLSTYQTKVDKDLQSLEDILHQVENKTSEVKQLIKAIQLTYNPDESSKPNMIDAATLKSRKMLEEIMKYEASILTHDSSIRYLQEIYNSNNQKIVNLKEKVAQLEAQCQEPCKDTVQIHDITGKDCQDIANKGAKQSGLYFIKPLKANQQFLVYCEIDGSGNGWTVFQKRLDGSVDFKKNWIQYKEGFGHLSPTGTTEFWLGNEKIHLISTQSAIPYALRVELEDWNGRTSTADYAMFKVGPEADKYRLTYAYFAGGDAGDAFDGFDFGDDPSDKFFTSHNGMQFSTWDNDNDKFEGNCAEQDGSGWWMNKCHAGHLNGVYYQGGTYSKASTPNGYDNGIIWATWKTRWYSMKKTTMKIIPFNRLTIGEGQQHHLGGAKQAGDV
In words: Incorporation into human plasma clots in vitro. The class given is biochemical. Particulars: for % specific uptake: % retained (with thrombin) - % retained (no thrombin); for % retained (no thrombin): control without thrombin and calcium chloride (non-specific binding); for % retained (with thrombin): human plasma clot, 60 minutes, ca. 20° C. On the procedure:
Incorporation of radiolabelled substrates into fibrin was investigated by induction of an in vitro human plasma clot in the following manner. To a siliconised 5 ml glass vial was added, (a) 800 μl of Tris(hydroxymethyl)aminomethane buffered saline pH 7.5 containing calcium chloride (50 mM Tris, 150 mM sodium chloride, 4 mM calcium chloride.), (b) about 40 μl of physiological salt solution containing 100 units of thrombin per ml, (c) about 400 μl of human plasma containing the radiolabelled substrate at a concentration of typically 10 kBq/ml. To aid induction of clot a roughened glass rod was added to the reaction vial. Control vials were prepared similarly but with the omission of thrombin and calcium chloride.
After incubation of the test solution at ambient laboratory temperature (ca. 20° C.) for 60 minutes the reaction was discontinued with the addition of about 400 μl of a cold solution of 33.5 mM ethylenediaminetetra-acetic acid disodium salt. Clots were separated from serum by vacuum filtration onto […] nitrocellulose filters (pre-soaked in 1.5% BSA/tris(hydroxymethyl)aminoethae buffered saline pH 7.5 containing 0.1% Tween 20) and washed with about 2×10 ml of tris(hydroxymethyl)aminomethane buffered saline pH 7.5 containing Tween 20 to a final concentration of 0.1% v/v. The proportion of total radioactivity was calculated by counting in suitable detection apparatus.
The fraction of radioactivity retained on the filter, after subtraction of the non-specific binding determined from the control, is a measure of incorporation into the filtered clots.

A short description of experiment [2]: Incorporation into clots induced in a rat model (rat inferior vena cava model). The class given is in vivo, rat (Male Wistar). Conditions: for % id/g (clot) / Rel. Conc. (cpm/g of clot by dose/g animal): sacrificed after 60 min. On the procedure:
The rats (Male Wistar, 250–350 g) were anaesthetised with 15% urethane. After laparotomy, the vena cava was isolated and freed of surrounding fat tissue. […] The compounds were injected 5 min (fresh clot) and 60 min (aged clot) post-induction. After 60 min the animals were sacrificed and the clot removed, weighed and counted. Other tissues e.g. blood, lung, heart, were also dissected and counted. The uptake of tracer into the clot was determined as the relative concentration (cpm/g of clot by dose/g animal) and clot to background tissue.

Setting [3] is: Aged Clots: injected 60 min post-induction.
[4] abbreviates: Fresh Clots: injected 5 min post-induction.

On to “Cyclo-[NQEQVSPYTLLKG] (cyclo(NQEQVSPYTLLKG); also: 123I label, place not given here) [^123I-Cmpd 44]”, for which, in experiment [1], the “% specific uptake” value turned out to be 13.8%, the “% retained (no thrombin)” value was determined as 0.3% and the “% retained (with thrombin)” value was 14.1%. Also, in experiment [2] (Aged Clots), the Clot/blood worked out at 0.9, the Clot/heart was determined as 1, the Clot/liver worked out at 1 and the Clot/lung amounted to 2. For the same substance, in experiment [2] (setting [3]), the “% id/g (clot)” value is on record as 0.5 ± 0.03 % id/g and the “Rel. Conc. (cpm/g of clot by dose/g animal)” value came out at 1.2 ± 0.1. In experiment [2] (Fresh Clots), this substance displayed a Clot/blood of 0.9, a Clot/heart of 1, a Clot/liver of 2 and a Clot/lung of 1.5. Further, in experiment [2] (setting [4]), the “% id/g (clot)” value is given as 0.4 ± 0.1 % id/g and the “Rel. Conc. (cpm/g of clot by dose/g animal)” value is on record as 1.1 ± 0.2.
With “Ac-N—CH2NH2-QEQVSP(D-Y)TLL(D-K)G-Pn216 [^99mTc-Cmpd 34]”, in experiment [1], the “% specific uptake” value turned out to be 5.4%, the “% retained (no thrombin)” value is reported as 0.1%, the “% retained (with thrombin)” value stood at 5.5% and the “in vitro clot uptake (in words)” value is “significant reduction in uptake”. In experiment [2] (Aged Clots), this substance registered a Clot/blood of 3 and a Clot/liver of 6. Moreover, in experiment [2] (setting [3]), the “% id/g (clot)” value is reported as 0.4 ± 0.1 % id/g and the “Rel. Conc. (cpm/g of clot by dose/g animal)” value was determined as 1.4 ± 0.4. For the same substance, in experiment [2] (Fresh Clots), the Clot/blood is 2, the Clot/heart is 6, the Clot/liver was determined as 8 and the Clot/lung is 3. Moreover, in experiment [2] (setting [4]), the “% id/g (clot)” value was 0.5 ± 0.2 % id/g and the “Rel. Conc. (cpm/g of clot by dose/g animal)” value came to 1.8 ± 0.5.
As for Ac-NQEQVSPYTLLKG-NH2 [^123I-Cmpd 2], in experiment [1], the “% specific uptake” value was 38.4%, the “% retained (no thrombin)” value was determined as 0.2% and the “% retained (with thrombin)” value was 38.6%. In experiment [2] (Aged Clots), this substance came in with a Clot/blood of 24, a Clot/heart of 23, a Clot/liver of 20 and a Clot/lung of 12. Also, in experiment [2] (setting [3]), the “% id/g (clot)” value came out at 5.5 ± 1.7 % id/g and the “Rel. Conc. (cpm/g of clot by dose/g animal)” value worked out at 14.5 ± 3.9. In experiment [2] (Fresh Clots), the Clot/blood was 7, the Clot/heart is recorded as 19, the Clot/liver is given as 21 and the Clot/lung was determined as 10. For the same substance, in experiment [2] (setting [4]), the “% id/g (clot)” value was found to be 4.9 ± 0.8 % id/g and the “Rel. Conc. (cpm/g of clot by dose/g animal)” value amounted to 14.5 ± 2.2.
For “Ac-NQEQVSP-Nal(2)-TLLKG-Pn216 [^99mTc-Cmpd 20]”, in experiment [1], the “% specific uptake” value is 62.4%, the “% retained (no thrombin)” value was found to be 2.6% and the “% retained (with thrombin)” value is on record as 65.0%. In experiment [2] (Aged Clots), this substance had a Clot/blood of 10, a Clot/heart of 36, a Clot/liver of 23 and a Clot/lung of 14. Further, in experiment [2] (setting [3]), the “% id/g (clot)” value is listed as 1.7 ± 0.5 % id/g and the “Rel. Conc. (cpm/g of clot by dose/g animal)” value was 4.9 ± 1.4. In experiment [2] (Fresh Clots), this substance yielded a Clot/blood of 12, a Clot/heart of 30, a Clot/liver of 18 and a Clot/lung of 11. For the same substance, in experiment [2] (setting [4]), the “% id/g (clot)” value turned out to be 2.3 ± 0.6 % id/g and the “Rel. Conc. (cpm/g of clot by dose/g animal)” value was determined as 6.5 ± 1.3.
On to “Pn216-CO(CH2)3CO-G(D-K)(D-L)(D-L)(D-T)(D-Y)(D-P)(D-S)(D-V)NH2 [^99mTc-Cmpd 36]”, for which, in experiment [1], the “% specific uptake” value came out at 8.6%, the “% retained (no thrombin)” value was determined as 0.1%, the “% retained (with thrombin)” value was determined as 8.7% and the “in vitro clot uptake (in words)” value is “significant reduction in uptake”. Further, in experiment [2] (Aged Clots), the Clot/blood came out at 0.6, the Clot/heart worked out at 18, the Clot/liver worked out at 4 and the Clot/lung was found to be 10. In experiment [2] (setting [3]), the “% id/g (clot)” value is 0.1 ± 0.02 % id/g and the “Rel. Conc. (cpm/g of clot by dose/g animal)” value was determined as 0.2 ± 0.1. In experiment [2] (Fresh Clots), the Clot/blood stood at 1, the Clot/heart stood at 3, the Clot/liver is recorded as 4 and the Clot/lung was 1. Besides, in experiment [2] (setting [4]), the “% id/g (clot)” value came out at 0.2 ± 0.1 % id/g and the “Rel. Conc. (cpm/g of clot by dose/g animal)” value amounted to 0.7 ± 0.3.
As to “Fmoc-NQQQ(D-V)S(OMe)PLG-Pn216 [^99mTc-Cmpd 37]”, in experiment [1], the “% specific uptake” value came to 12.8%, the “% retained (no thrombin)” value turned out to be 0.2% and the “% retained (with thrombin)” value was 13.0%. In experiment [2] (Aged Clots), this substance registered a Clot/blood of 0.4, a Clot/heart of 2, a Clot/liver of 9 and a Clot/lung of 1. Also, in experiment [2] (setting [3]), the “% id/g (clot)” value was determined as 0.2 ± 0.03 % id/g and the “Rel. Conc. (cpm/g of clot by dose/g animal)” value came to 0.5 ± 0.1. In experiment [2] (Fresh Clots), the Clot/blood is 0.6, the Clot/heart was found to be 1, the Clot/liver turned out to be 1 and the Clot/lung worked out at 0.7. In addition, in experiment [2] (setting [4]), the “% id/g (clot)” value was 0.4 ± 0.2 % id/g and the “Rel. Conc. (cpm/g of clot by dose/g animal)” value stood at 0.9 ± 0.4.
As for “Ac-NQEQVSPYTLLKG-(PEG)3.4k-Pn44 (Ac-NQEQVSPYTLLKG-{PEG 3.4k-Pn44}; also: 99mTc complex) [^99mTc-Cmpd 40]”, in experiment [1], the “% specific uptake” value stood at 13.2%, the “% retained (no thrombin)” value is listed as 0.1% and the “% retained (with thrombin)” value came to 13.3%.
In the case of “Z-NQEQVSPYG-Pn216 ({code Z}-NQEQVSPYG-Pn216; reading uncertain; also: 99mTc complex, printed as Z-NQEQVSPYG-Pn216) [^99mTc-Cmpd 18]”, in experiment [1], the “% specific uptake” value is 9.7%, the “% retained (no thrombin)” value came to 0.1%, the “% retained (with thrombin)” value is recorded as 9.8% and the “in vitro clot uptake (in words)” value was “significant reduction in uptake”.
Regarding “Ac-NQEQV(D-S)P(D-Y)TLL(D-K)G-Pn216 [^99mTc-Cmpd 30]”, in experiment [1], the “% specific uptake” value was found to be 14.7%, the “% retained (no thrombin)” value worked out at 0.2% and the “% retained (with thrombin)” value came out at 14.9%.
The matching figures for “NQEQVSPYTLLKG-Pn216 (also: 99mTc complex) [^99mTc-Cmpd 6]”: 64.3%, 4.3% and 68.6%.
“Z-NQEQVSP(I2-Y)TLLKG-Pn216 [^99mTc-Cmpd 25]”: in experiment [1], the “% specific uptake” value was 63.7%, the “% retained (no thrombin)” value amounted to 4.3% and the “% retained (with thrombin)” value came out at 68.0%.

The values above are taken from patent US7049289B1, “Labelled glutamine and lysine analogues” (Amersham PLC, priority 1998, dated 2006).
